Test results as given in US10040781B2, “Tank-binding kinase inhibitor compounds” (Gilead Sciences, Inc., priority 2014, dated 2018).

How the values were obtained:
TBK1 = TBK1 (Homo sapiens (Human), UniProt Q9UHD2); assay: TBK1 TR-FRET enzymatic assay;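 further: phosphorylation of a biotinylated Ser/Thr peptide by purified full-length recombinant TBK1, read by TR-FRET after 240 min at 25 °C, IC50 is the geometric mean of at least four runs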
hJAK2 = hJAK2 (Homo sapiens (Human), UniProt O60674); assay: hJAK2 LANCE TR-FRET enzymatic assay; type: biochemical; details: read-out: JAK2 IC50
hJAK2, sequence (O60674 whole entry): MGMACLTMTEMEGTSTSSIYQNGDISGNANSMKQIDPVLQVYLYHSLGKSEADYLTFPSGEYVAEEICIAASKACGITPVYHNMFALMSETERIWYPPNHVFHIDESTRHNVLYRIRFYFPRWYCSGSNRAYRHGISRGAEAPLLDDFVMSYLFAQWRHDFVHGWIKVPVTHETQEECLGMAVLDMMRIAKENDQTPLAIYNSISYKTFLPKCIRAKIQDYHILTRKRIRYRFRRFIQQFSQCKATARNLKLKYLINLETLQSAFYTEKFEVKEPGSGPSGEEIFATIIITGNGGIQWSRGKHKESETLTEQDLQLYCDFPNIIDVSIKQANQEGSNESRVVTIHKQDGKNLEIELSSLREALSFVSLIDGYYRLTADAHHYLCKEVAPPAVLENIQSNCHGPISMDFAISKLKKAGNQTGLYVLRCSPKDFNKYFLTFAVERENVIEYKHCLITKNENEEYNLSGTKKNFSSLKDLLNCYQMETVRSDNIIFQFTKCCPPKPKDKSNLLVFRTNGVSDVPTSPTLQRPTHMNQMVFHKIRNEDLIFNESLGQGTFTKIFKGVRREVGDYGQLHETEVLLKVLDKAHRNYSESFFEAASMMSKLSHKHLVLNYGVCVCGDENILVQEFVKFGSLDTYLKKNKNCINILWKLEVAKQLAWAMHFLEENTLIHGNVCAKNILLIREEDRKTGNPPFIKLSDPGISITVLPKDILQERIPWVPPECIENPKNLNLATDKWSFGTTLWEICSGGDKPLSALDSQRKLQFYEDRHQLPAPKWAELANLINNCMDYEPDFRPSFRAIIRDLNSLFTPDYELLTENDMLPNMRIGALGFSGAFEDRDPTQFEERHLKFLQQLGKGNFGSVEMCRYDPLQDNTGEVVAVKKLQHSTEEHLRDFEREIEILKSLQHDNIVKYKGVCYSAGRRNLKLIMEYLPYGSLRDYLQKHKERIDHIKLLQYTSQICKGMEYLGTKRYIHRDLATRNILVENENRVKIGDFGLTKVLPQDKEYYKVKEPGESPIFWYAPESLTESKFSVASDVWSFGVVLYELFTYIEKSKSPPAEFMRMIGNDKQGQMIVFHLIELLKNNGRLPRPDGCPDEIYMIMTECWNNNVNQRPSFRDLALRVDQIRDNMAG

IKKε = IKKε (Homo sapiens (Human), UniProt Q14164); assay: IKKε TR-FRET enzymatic assay; type: biochemical; details: read-out: IKKe IC50
IKKε, sequence (Q14164 whole entry): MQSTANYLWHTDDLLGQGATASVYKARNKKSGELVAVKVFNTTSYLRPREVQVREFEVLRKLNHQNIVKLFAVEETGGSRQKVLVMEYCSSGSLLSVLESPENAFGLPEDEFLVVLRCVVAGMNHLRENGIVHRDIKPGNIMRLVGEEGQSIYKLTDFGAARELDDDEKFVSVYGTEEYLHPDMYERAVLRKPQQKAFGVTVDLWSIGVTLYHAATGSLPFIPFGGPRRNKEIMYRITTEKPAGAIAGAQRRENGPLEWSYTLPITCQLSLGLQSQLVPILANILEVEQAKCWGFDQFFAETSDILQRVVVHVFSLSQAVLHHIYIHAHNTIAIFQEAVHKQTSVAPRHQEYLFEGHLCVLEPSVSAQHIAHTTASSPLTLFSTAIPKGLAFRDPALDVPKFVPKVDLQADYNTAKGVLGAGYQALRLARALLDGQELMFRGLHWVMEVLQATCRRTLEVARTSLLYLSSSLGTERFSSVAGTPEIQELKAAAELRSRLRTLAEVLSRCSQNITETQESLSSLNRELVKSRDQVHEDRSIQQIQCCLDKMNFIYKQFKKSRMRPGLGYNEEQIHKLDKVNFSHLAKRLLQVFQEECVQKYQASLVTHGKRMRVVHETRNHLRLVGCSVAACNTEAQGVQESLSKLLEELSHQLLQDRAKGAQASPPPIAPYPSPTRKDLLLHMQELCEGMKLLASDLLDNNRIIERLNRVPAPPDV

TBK1, sequence (Q9UHD2 whole entry): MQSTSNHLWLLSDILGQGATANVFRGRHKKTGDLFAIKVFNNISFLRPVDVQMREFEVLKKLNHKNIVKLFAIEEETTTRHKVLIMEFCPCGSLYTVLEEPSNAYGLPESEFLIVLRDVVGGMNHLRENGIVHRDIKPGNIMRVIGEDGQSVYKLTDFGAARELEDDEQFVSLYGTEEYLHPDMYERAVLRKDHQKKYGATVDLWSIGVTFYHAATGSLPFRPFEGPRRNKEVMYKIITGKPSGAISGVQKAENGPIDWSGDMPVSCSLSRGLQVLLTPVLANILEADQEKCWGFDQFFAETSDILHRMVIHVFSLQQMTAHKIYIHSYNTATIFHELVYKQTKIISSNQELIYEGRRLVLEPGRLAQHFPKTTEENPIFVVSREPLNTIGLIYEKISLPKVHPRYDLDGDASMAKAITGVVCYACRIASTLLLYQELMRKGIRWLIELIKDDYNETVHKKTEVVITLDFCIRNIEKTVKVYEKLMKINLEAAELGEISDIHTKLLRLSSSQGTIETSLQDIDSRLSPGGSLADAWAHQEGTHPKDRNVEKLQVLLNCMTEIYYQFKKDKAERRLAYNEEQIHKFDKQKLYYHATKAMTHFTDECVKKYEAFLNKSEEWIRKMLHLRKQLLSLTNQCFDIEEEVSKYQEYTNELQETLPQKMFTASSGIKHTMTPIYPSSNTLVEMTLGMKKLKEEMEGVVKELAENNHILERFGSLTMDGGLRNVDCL

| Compound | IC50 (TBK1) [nM] | IC50 (hJAK2) [nM] | IC50 (IKKε) [nM] |
| --- | --- | --- | --- |
| N#Cc1cc(-c2ncnc(Nc3ccc(N4CCO[C@@H](CO)C4)cc3)n2)ccc1OC1CCN(C(=O)CO)CC1 [Example 227, (R)-2-((1-(2-hydroxyacetyl)piperidin-4-yl)oxy)-5-(4-((4-(2-(hydroxymethyl)morpholino)phenyl)amino)-1,3,5-triazin-2-yl)benzonitrile] | 2 | 333 | 4 |
| C[C@H](O)C(=O)N1CCC(Oc2ccc(-c3ncnc(Nc4ccc(N5CCO[C@@H](CO)C5)cc4)n3)cc2C#N)C(F)(F)C1 (stereo partly drawn) [Example 228, 2-((3,3-difluoro-1-((S)-2-hydroxypropanoyl)piperidin-4-yl)oxy)-5-(4-((4-((R)-2-(hydroxymethyl)morpholino)phenyl)amino)-1,3,5-triazin-2-yl)benzonitrile] | 1 | 206 | 2 |
| CC(=O)N1CC[C@H](Oc2ccc(-c3ncnc(Nc4ccc(N5CCO[C@@H](CO)C5)cc4)n3)cc2C#N)C(F)(F)C1 [Example 230, 2-(((5)-1-acetyl-3,3-difluoropiperidin-4-yl)oxy)-5-(4-((4-((R)-2-(hydroxymethyl)morpholino)phenyl)amino)-1,3,5-triazin-2-yl)benzonitrile] | 4 | 233 | 2 |
| C[C@H](O)C(=O)N1CC[C@H](Oc2ccc(-c3ncnc(Nc4ccc(N5CCO[C@@H](CO)C5)cc4)n3)cc2C#N)[C@H](F)C1 [Example 231, 2-(((3R,4S)-3-fluoro-1-((S)-2-hydroxypropanoyl)piperidin-4-yl)oxy)-5-(4-((4-((R)-2-(hydroxymethyl)morpholino)phenyl)amino)-1,3,5-triazin-2-yl)benzonitrile] | 3 | 486 | 1 |
| N#Cc1cc(-c2ncnc(Nc3ccc(N4CCO[C@H](CO)C4)cc3)n2)ccc1O[C@H]1CCN(C(=O)CO)C[C@H]1F [Example 232, 2-(((3R,4S)-3-fluoro-1-(2-hydroxyacetyl)piperidin-4-yl)oxy)-5-(4-((4-((S)-2-(hydroxymethyl)morpholino)phenyl)amino)-1,3,5-triazin-2-yl)benzonitrile] | 2 | 128 | 1 |
| C[C@H](O)C(=O)N1CC[C@H](Oc2ccc(-c3ncnc(Nc4ccc(N5CCO[C@H](CO)C5)cc4)n3)cc2C#N)[C@H](F)C1 [Example 233, 2-(((3R,4S)-3-fluoro-1-((S)-2-hydroxypropanoyl)piperidin-4-yl)oxy)-5-(4-((4-((S)-2-(hydroxymethyl)morpholino)phenyl)amino)-1,3,5-triazin-2-yl)benzonitrile] | 2 | 333 | 1 |
| N#Cc1cc(-c2ncnc(Nc3ccc(N4CCN(C5COC5)CC4)cc3)n2)ccc1O[C@@H]1CCNC[C@H]1F [Example 236, 2-(((3R,4R)-3-fluoropiperidin-4-yl)oxy)-5-(4-((4-(4-(oxetan-3-yl)piperazin-1-yl)phenyl)amino)-1,3,5-triazin-2-yl)benzonitrile] | 58 | 723 | 233 |
| N#Cc1cc(-c2ncnc(Nc3ccc(N4CCN(C5COC5)CC4)cc3)n2)ccc1O[C@H]1CCNC[C@H]1F [Example 239, 2-(((3R,4S)-3-fluoropiperidin-4-yl)oxy)-5-(4-((4-(4-(oxetan-3-yl)piperazin-1-yl)phenyl)amino)-1,3,5-triazin-2-yl)benzonitrile] | 8 | 409 | 59 |
| N#Cc1cc(-c2ncnc(Nc3ccc(N4CCN(C5COC5)CC4)c(F)c3)n2)ccc1O[C@H]1CCN(C(=O)CO)C[C@H]1F [Example 240, 2-(((3R,4S)-3-fluoro-1-(2-hydroxyacetyl)piperidin-4-yl)oxy)-5-(4-((3-fluoro-4-(4-(oxetan-3-yl)piperazin-1-yl)phenyl)amino)-1,3,5-triazin-2-yl)benzonitrile] | 1 | 199 | 1 |
| C[C@@H]1CN(C2COC2)CCN1c1ccc(Nc2ncnc(-c3ccc(O[C@H]4CCN(C(=O)CO)C[C@H]4F)c(C#N)c3)n2)cc1 [Example 242, 2-(((3R,4S)-3-fluoro-1-(2-hydroxyacetyl)piperidin-4-yl)oxy)-5-(4-((4-((R)-2-methyl-4-(oxetan-3-yl)piperazin-1-yl)phenyl)amino)-1,3,5-triazin-2-yl)benzonitrile] | 2 | 249 | 1 |
| C[C@H]1CN(C2COC2)CCN1c1ccc(Nc2ncnc(-c3ccc(O[C@H]4CCN(C(=O)CO)C[C@H]4F)c(C#N)c3)n2)cc1 [Example 244, 2-(((3R,4S)-3-fluoro-1-(2-hydroxyacetyl)piperidin-4-yl)oxy)-5-(4-((4-((S)-2-methyl-4-(oxetan-3-yl)piperazin-1-yl)phenyl)amino)-1,3,5-triazin-2-yl)benzonitrile] | 3 | 191 | 1 |
| C[C@H](O)C(=O)N1CC[C@H](Oc2ccc(-c3ncnc(Nc4ccc(N5CCN(C6COC6)[C@H](C)C5)cc4)n3)cc2C#N)C(F)(F)C1 [Example 246, 2-(((S)-3,3-difluoro-1-((S)-2-hydroxypropanoyl)piperidin-4-yl)oxy)-5-(4-((4-((R)-3-methyl-4-(oxetan-3-yl)piperazin-1-yl)phenyl)amino)-1,3,5-triazin-2-yl)benzonitrile] | 2 | 181 | 1 |
| C[C@@H]1CN(c2ccc(Nc3ncnc(-c4ccc(O[C@@H]5CCN(C(=O)[C@@H](C)O)CC5(F)F)c(C#N)c4)n3)cc2)CCN1C1COC1 [Example 247, 2-(((R)-3,3-difluoro-1-((R)-2-hydroxypropanoyl)piperidin-4-yl)oxy)-5-(4-((4-((R)-3-methyl-4-(oxetan-3-yl)piperazin-1-yl)phenyl)amino)-1,3,5-triazin-2-yl)benzonitrile] | 233 | 333 | 397 |
| C[C@@H]1CN(c2ccc(Nc3ncnc(-c4ccc(O[C@H]5CCN(C(=O)[C@@H](C)O)CC5(F)F)c(C#N)c4)n3)cc2)CCN1C1COC1 [Example 248, 2-(((S)-3,3-difluoro-1-((R)-2-hydroxypropanoyl)piperidin-4-yl)oxy)-5-(4-((4-((R)-3-methyl-4-(oxetan-3-yl)piperazin-1-yl)phenyl)amino)-1,3,5-triazin-2-yl)benzonitrile] | 3 | 187 | 3 |
| C[C@H](O)C(=O)N1CC[C@H](Oc2ccc(-c3ncnc(Nc4ccc(N5CCN(C6COC6)C[C@@H]5C)cc4)n3)cc2C#N)[C@H](F)C1 [Example 249, 2-(((3R,4S)-3-fluoro-1-((S)-2-hydroxypropanoyl)piperidin-4-yl)oxy)-5-(4-((4-((S)-2-methyl-4-(oxetan-3-yl)piperazin-1-yl)phenyl)amino)-1,3,5-triazin-2-yl)benzonitrile] | 3 | 389 | 2 |
| C[C@H]1CN(C2COC2)CCN1c1ccc(Nc2ncnc(-c3ccc(O[C@H]4CCN(C(=O)CC#N)C[C@H]4F)c(C#N)c3)n2)cc1 [Example 250, 2-(((3R,4S)-1-(2-cyanoacetyl)-3-fluoropiperidin-4-yl)oxy)-5-(4-((4-((S)-2-methyl-4-(oxetan-3-yl)piperazin-1-yl)phenyl)amino)-1,3,5-triazin-2-yl)benzonitrile] | 3 | 127 | 5 |
